Data reported in US20260356819A1, “OXOISOINDOLINYL-SUBSTITUTED […] DERIVATIVE AND USE THEREOF” (GLUETACS THERAPEUTICS (SHANGHAI) CO., LTD., priority 2023, published 2026).

How the values were obtained:
Assay type in all cases: cell-based
Settings in all cases: compounds at 50 nM and 500 nM
IKZF3 = target: T1, IKZF3 (Homo sapiens, UniProt Q96SW2+Q9UKT9); test: Western blot degradation of IKZF3 in hPBMCs (24 h)
T1 construct: The supernatant was aspirated as the extracted total cell protein; endogenous in cells; host or cells: human peripheral blood mononuclear cells (hPBMCs)
How it was run: (§1)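 hPBMCs (1×10^6 cells/mL) exposed to compound at 50 nM and 500 nM for 24 h, DMSO as reference. Lysates run on SDS-PAGE and immunoblotted. Band grayscale normalized to internal control gives % protein remaining; DC50 from fitted concentration-response of band intensity versus DMSO.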

WEE1 = target: T2, WEE1 (Homo sapiens, UniProt P30291+Q96SW2); test: Western blot degradation of WEE1 in hPBMCs (24 h)
T2 construct: The supernatant was aspirated as the extracted total cell protein; endogenous in cells; host or cells: human peripheral blood mononuclear cells (hPBMCs)
How it was run: as §1

CK1α = target: T3, CK1α (Homo sapiens, UniProt P48729+Q96SW2); test: Western blot degradation of CK1α in hPBMCs (24 h)
T3 construct: The supernatant was aspirated as the extracted total cell protein; endogenous in cells; host or cells: human peripheral blood mononuclear cells (hPBMCs)
How it was run: as §1

IKZF1 = target: T4, IKZF1 (Homo sapiens, UniProt Q13422+Q96SW2); test: Western blot degradation of IKZF1 in hPBMCs (24 h)
T4 construct: The supernatant was aspirated as the extracted total cell protein; endogenous in cells; host or cells: human peripheral blood mononuclear cells (hPBMCs)
How it was run: as §1

IKZF2 = target: T5, IKZF2 (Homo sapiens, UniProt Q96SW2+Q9UKS7); test: Western blot degradation of IKZF2 in hPBMCs (24 h)
T5 construct: The supernatant was aspirated as the extracted total cell protein; endogenous in cells; host or cells: human peripheral blood mononuclear cells (hPBMCs)
How it was run: as §1

GSPT1 = target: T6, GSPT1 (Homo sapiens, UniProt P15170+Q96SW2); test: Western blot degradation of GSPT1 in hPBMCs (24 h)
T6 construct: The supernatant was aspirated as the extracted total cell protein; endogenous in cells; host or cells: human peripheral blood mononuclear cells (hPBMCs)
How it was run: as §1

T3 sequence (P48729 whole entry): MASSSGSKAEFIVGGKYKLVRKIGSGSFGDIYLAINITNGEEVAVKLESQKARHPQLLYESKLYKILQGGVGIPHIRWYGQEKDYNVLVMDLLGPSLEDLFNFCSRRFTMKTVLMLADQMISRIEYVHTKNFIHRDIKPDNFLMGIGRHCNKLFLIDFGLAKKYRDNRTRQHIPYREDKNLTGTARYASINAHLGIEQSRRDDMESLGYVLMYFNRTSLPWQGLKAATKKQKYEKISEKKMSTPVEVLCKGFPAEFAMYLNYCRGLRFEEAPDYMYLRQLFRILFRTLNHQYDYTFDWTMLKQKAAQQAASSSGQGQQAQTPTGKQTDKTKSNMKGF
T3 sequence (Q96SW2 whole entry): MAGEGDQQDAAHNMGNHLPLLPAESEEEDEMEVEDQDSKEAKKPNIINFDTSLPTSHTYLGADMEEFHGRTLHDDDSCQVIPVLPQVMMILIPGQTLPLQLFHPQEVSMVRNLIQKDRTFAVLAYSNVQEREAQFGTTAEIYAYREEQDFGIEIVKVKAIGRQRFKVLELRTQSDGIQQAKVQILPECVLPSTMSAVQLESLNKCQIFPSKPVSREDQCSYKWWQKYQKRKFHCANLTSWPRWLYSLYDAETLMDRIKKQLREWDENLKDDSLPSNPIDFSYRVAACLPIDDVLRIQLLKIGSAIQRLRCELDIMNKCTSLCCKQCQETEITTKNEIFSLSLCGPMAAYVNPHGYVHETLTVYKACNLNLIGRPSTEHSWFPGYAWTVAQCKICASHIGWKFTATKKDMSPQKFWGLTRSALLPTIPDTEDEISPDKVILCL
T3 sequence (Q16531 whole entry partner): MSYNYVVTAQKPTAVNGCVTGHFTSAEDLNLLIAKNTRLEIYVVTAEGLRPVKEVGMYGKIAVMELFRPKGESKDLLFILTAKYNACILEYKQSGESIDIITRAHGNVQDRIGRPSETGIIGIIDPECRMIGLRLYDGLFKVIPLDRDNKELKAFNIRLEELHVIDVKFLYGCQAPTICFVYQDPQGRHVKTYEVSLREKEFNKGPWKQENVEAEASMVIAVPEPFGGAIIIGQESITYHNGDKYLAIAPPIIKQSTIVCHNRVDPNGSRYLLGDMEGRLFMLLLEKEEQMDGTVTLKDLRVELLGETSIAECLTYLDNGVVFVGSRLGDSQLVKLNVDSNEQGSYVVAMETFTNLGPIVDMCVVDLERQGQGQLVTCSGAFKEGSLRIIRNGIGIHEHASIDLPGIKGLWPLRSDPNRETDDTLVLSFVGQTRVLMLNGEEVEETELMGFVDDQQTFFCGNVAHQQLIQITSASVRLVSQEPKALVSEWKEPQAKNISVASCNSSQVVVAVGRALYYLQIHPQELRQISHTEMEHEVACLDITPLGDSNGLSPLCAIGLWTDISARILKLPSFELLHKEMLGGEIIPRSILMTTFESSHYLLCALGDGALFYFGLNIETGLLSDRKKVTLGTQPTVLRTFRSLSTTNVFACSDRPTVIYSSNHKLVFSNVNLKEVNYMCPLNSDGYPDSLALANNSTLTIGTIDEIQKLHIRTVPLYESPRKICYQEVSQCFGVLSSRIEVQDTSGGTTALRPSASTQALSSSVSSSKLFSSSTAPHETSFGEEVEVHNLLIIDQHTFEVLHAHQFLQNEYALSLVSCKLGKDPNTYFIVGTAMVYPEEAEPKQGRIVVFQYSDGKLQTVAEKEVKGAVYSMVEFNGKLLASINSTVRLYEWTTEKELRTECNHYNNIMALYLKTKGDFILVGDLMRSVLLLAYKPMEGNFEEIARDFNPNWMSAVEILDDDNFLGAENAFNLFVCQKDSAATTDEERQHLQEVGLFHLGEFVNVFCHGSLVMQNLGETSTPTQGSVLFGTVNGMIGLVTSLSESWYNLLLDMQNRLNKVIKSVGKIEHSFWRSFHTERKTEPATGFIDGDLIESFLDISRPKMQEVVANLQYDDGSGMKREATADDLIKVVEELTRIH
T6 sequence (P15170 whole entry): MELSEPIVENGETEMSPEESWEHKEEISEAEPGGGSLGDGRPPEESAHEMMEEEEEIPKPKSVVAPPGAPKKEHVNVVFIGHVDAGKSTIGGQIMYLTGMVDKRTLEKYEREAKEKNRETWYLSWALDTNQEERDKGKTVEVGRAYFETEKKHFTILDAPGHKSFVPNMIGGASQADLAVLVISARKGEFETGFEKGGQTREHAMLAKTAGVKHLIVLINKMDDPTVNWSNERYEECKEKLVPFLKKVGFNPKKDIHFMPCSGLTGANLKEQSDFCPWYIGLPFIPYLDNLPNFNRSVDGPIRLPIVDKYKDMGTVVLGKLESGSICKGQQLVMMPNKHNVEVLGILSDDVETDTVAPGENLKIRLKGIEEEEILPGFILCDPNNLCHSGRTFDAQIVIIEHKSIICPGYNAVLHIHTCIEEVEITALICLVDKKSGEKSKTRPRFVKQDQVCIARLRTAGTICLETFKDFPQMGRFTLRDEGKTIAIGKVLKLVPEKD
T6 sequence (Q96SW2 whole entry): as the sequence (Q96SW2 whole entry) above
T6 sequence (Q16531 whole entry partner): as the sequence (Q16531 whole entry partner) above
T5 sequence (Q9UKS7 whole entry): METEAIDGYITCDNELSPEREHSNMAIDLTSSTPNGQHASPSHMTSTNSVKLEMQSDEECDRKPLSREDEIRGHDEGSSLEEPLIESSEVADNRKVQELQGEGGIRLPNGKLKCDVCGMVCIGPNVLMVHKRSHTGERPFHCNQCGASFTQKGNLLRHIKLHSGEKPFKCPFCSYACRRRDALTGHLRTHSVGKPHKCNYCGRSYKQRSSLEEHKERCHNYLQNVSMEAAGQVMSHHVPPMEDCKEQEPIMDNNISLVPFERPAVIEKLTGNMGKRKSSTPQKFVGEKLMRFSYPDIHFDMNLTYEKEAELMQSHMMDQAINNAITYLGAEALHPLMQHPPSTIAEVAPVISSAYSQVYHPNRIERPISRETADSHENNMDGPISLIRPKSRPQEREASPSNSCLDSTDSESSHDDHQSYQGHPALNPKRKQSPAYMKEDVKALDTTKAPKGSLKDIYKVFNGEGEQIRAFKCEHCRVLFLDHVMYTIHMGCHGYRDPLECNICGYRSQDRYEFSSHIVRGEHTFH
T5 sequence (Q96SW2 whole entry): as the sequence (Q96SW2 whole entry) above
T5 sequence (Q16531 whole entry partner): as the sequence (Q16531 whole entry partner) above
T1 sequence (Q9UKT9 whole entry): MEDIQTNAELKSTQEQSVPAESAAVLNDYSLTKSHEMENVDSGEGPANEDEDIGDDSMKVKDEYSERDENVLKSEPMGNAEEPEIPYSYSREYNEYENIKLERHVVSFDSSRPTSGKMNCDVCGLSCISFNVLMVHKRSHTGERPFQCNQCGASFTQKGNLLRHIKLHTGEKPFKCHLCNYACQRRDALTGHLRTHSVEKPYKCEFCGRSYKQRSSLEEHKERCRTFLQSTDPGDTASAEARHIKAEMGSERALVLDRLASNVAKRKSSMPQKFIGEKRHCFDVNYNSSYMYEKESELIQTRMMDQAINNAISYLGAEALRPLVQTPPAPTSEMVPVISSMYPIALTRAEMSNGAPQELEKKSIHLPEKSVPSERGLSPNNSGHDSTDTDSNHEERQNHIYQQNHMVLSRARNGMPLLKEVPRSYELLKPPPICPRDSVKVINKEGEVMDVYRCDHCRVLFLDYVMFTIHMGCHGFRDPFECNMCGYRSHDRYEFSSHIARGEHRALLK
T1 sequence (Q96SW2 whole entry): as the sequence (Q96SW2 whole entry) above
T1 sequence (Q16531 whole entry partner): as the sequence (Q16531 whole entry partner) above
T4 sequence (Q13422 whole entry): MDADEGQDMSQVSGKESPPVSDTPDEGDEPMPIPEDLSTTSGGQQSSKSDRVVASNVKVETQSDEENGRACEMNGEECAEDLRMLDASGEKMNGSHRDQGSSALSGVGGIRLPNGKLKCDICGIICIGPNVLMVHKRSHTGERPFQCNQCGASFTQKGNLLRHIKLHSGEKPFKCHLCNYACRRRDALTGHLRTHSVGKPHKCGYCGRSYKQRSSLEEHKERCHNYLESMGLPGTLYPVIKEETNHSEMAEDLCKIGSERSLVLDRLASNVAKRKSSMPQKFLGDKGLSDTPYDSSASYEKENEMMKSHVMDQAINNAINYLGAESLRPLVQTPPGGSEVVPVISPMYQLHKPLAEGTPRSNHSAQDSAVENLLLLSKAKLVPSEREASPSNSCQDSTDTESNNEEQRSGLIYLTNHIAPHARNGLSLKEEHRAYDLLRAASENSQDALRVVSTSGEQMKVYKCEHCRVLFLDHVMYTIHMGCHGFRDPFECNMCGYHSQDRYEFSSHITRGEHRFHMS
T4 sequence (Q96SW2 whole entry): as the sequence (Q96SW2 whole entry) above
T4 sequence (Q16531 whole entry partner): as the sequence (Q16531 whole entry partner) above

Structure (SMILES)	IKZF3 substrate protein remaining % (IKZF3)	WEE1 substrate protein remaining % (WEE1)	CK1α substrate protein remaining % (CK1α)	IKZF1 substrate protein remaining % (IKZF1)	IKZF2 substrate protein remaining % (IKZF2)	GSPT1 substrate protein remaining % (GSPT1)
O=C1CCN(N2Cc3cc(CN4CCC(c5ccccc5Cl)CC4)ccc3C2=O)C(=O)N1 [GT-06887, 1-(5-((4-(2-chlorophenyl)piperidin-1-yl)methyl)-1-oxoisoindolin-2-yl)dihydropyrimidine-2,4(1H,3H)-dione]	B (80%< substrate protein remaining % ≤100%)	A (0% ≤ substrate protein remaining % ≤80%)	B (80%< substrate protein remaining % ≤100%)	B (80%< substrate protein remaining % ≤100%)	A (0% ≤ substrate protein remaining % ≤80%)	A (0% ≤ substrate protein remaining % ≤80%)
O=C1CCN(N2Cc3cc(CN4CCC(c5cccc(F)c5F)CC4)ccc3C2=O)C(=O)N1 [GT-08194, 1-(5-((4-(2,3-difluorophenyl)piperidin-1-yl)methyl)-1-oxoisoindolin-2-yl)dihydropyrimidine-2,4(1H,3H)-dione]	B (80%< substrate protein remaining % ≤100%)	B (80%< substrate protein remaining % ≤100%)	B (80%< substrate protein remaining % ≤100%)	A (0% ≤ substrate protein remaining % ≤80%)	B (80%< substrate protein remaining % ≤100%)	A (0% ≤ substrate protein remaining % ≤80%)
CC1CN(Cc2ccc3c(c2)C(=O)N(N2CCC(=O)NC2=O)C3=O)CC(C)N1C(c1ccccc1)c1ccccc1 (stereo not drawn) [GT-06430, 5-((4-benzhydryl-3,5-dimethylpiperazin-1-yl)methyl)-2-(2,4-dioxotetrahydropyrimidin-1(2H)-yl)isoindoline-1,3-dione]	A (0% ≤ substrate protein remaining % ≤80%)	A (0% ≤ substrate protein remaining % ≤80%)	B (80%< substrate protein remaining % ≤100%)	A (0% ≤ substrate protein remaining % ≤80%)	B (80%< substrate protein remaining % ≤100%)	A (0% ≤ substrate protein remaining % ≤80%)
Cc1sc2ncnc(C3=CCN(Cc4ccc5c(c4)C(=O)N(N4CCC(=O)NC4=O)C5=O)CC3)c2c1C [GT-05273, 5-((4-(5,6-dimethylthieno[2,3-d]pyrimidin-4-yl)-3,6-dihydropyridin-1(2H)-yl)methyl)-2-(2,4-dioxotetrahydropyrimidin-1(2H)-yl)isoindoline-1,3-dione]	B (80%< substrate protein remaining % ≤100%)	B (80%< substrate protein remaining % ≤100%)	B (80%< substrate protein remaining % ≤100%)	B (80%< substrate protein remaining % ≤100%)	A (0% ≤ substrate protein remaining % ≤80%)	B (80%< substrate protein remaining % ≤100%)
O=C1CCN(N2C(=O)c3ccc(CN4CCN(c5ncnc6sc7c(c56)CCC7)CC4)cc3C2=O)C(=O)N1 [GT-08103, 5-((4-(6,7-dihydro-5H-cyclopenta[4,5]thieno[2,3-d]pyrimidin-4-yl)piperazin-1-yl)methyl)-2-(2,4-dioxotetrahydropyrimidin-1(2H)-yl)isoindoline-1,3-dione]	A (0% ≤ substrate protein remaining % ≤80%)	B (80%< substrate protein remaining % ≤100%)	B (80%< substrate protein remaining % ≤100%)	B (80%< substrate protein remaining % ≤100%)	A (0% ≤ substrate protein remaining % ≤80%)	B (80%< substrate protein remaining % ≤100%)
O=C1CCN(N2C(=O)c3ccc(CN4CCN(C(c5ccccc5)c5ccccc5)CC4)cc3C2=O)C(=O)N1 [GT-05267, 5-((4-benzhydrylpiperazin-1-yl)methyl)-2-(2,4-dioxotetrahydropyrimidin-1(2H)-yl)isoindoline-1,3-dione]	A (0% ≤ substrate protein remaining % ≤80%)	B (80%< substrate protein remaining % ≤100%)	A (0% ≤ substrate protein remaining % ≤80%)	B (80%< substrate protein remaining % ≤100%)	B (80%< substrate protein remaining % ≤100%)	A (0% ≤ substrate protein remaining % ≤80%)
O=C1CCN(N2Cc3cc(CN4CCC(=C5CCOc6cc(F)ccc65)CC4)ccc3C2=O)C(=O)N1 [GT-07588, 1-(5-((4-(7-fluorochroman-4-ylidene)piperidin-1-yl)methyl)-1-oxoisoindolin-2-yl)dihydropyrimidine-2,4(1H,3H)-dione]	B (80%< substrate protein remaining % ≤100%)	B (80%< substrate protein remaining % ≤100%)	B (80%< substrate protein remaining % ≤100%)	B (80%< substrate protein remaining % ≤100%)	B (80%< substrate protein remaining % ≤100%)	A (0% ≤ substrate protein remaining % ≤80%)
O=C1CCN(N2Cc3cc(CN4CCN(c5ncnc6sc7c(c56)CCCC7)CC4)ccc3C2=O)C(=O)N1 [GT-08077, 1-(1-oxo-5-((4-(5,6,7,8-tetrahydrobenzo[4,5]thieno[2,3-d]pyrimidin-4-yl)piperazin-1-yl)methyl)isoindolin-2-yl)dihydropyrimidine-2,4(1H,3H)-dione]	B (80%< substrate protein remaining % ≤100%)	B (80%< substrate protein remaining % ≤100%)	A (0% ≤ substrate protein remaining % ≤80%)	B (80%< substrate protein remaining % ≤100%)	B (80%< substrate protein remaining % ≤100%)	A (0% ≤ substrate protein remaining % ≤80%)
CC1CN(C(c2ccccc2)c2ccccc2)CC(C)N1Cc1ccc2c(c1)CN(N1CCC(=O)NC1=O)C2=O (stereo not drawn) [GT-07433, 1-(5-((4-benzhydryl-2,6-dimethylpiperazin-1-yl)methyl)-1-oxoisoindolin-2-yl)dihydropyrimidine-2,4(1H,3H)-dione]	B (80%< substrate protein remaining % ≤100%)	B (80%< substrate protein remaining % ≤100%)	A (0% ≤ substrate protein remaining % ≤80%)	B (80%< substrate protein remaining % ≤100%)	A (0% ≤ substrate protein remaining % ≤80%)	B (80%< substrate protein remaining % ≤100%)
O=C1CCN(N2C(=O)c3ccc(CN4CCN(c5c(Cl)ccnc5Cl)CC4)cc3C2=O)C(=O)N1 [GT-06973, 5-((4-(2,4-dichloropyridin-3-yl)piperazin-1-yl)methyl)-2-(2,4-dioxotetrahydropyrimidin-1(2H)-yl)isoindoline-1,3-dione]	A (0% ≤ substrate protein remaining % ≤80%)	A (0% ≤ substrate protein remaining % ≤80%)	B (80%< substrate protein remaining % ≤100%)	A (0% ≤ substrate protein remaining % ≤80%)	B (80%< substrate protein remaining % ≤100%)	B (80%< substrate protein remaining % ≤100%)
Cc1nc(N2CCN(Cc3ccc4c(c3)CN(N3CCC(=O)NC3=O)C4=O)CC2)c2c(-c3ccccc3)csc2n1 [GT-08066, 1-(5-((4-(2-methyl-5-phenylthieno[2,3-d]pyrimidin-4-yl)piperazin-1-yl)methyl)-1-oxoisoindolin-2-yl)dihydropyrimidine-2,4(1H,3H)-dione]	B (80%< substrate protein remaining % ≤100%)	B (80%< substrate protein remaining % ≤100%)	A (0% ≤ substrate protein remaining % ≤80%)	B (80%< substrate protein remaining % ≤100%)	A (0% ≤ substrate protein remaining % ≤80%)	B (80%< substrate protein remaining % ≤100%)
Cc1csc2ncnc(N3CCN(Cc4ccc5c(c4)CN(N4CCC(=O)NC4=O)C5=O)CC3)c12 [GT-08058, 1-(5-((4-(5-methylthieno[2,3-d]pyrimidin-4-yl)piperazin-1-yl)methyl)-1-oxoisoindolin-2-yl)dihydropyrimidine-2,4(1H,3H)-dione]	B (80%< substrate protein remaining % ≤100%)	B (80%< substrate protein remaining % ≤100%)	B (80%< substrate protein remaining % ≤100%)	A (0% ≤ substrate protein remaining % ≤80%)	B (80%< substrate protein remaining % ≤100%)	B (80%< substrate protein remaining % ≤100%)
